Key:
[1] = system: hypercholesterolemic swine; assay: Total cholesterol, triglyceride and glucose concentrations in tissues of hypercholesterolemic swine; format: in vivo; conditions: control diet + 50 ppm, 42 days
Description: Each group of three 5-month old swine was administered either a control diet or a control diet supplemented with 50 ppm of TRF or 50 ppm of an individual tocotrienol. […] After a 12 hour fast, serum and plasma samples were taken a 0 hrs, 21 days and 42 days from the start of the feeding period. After taking serum and plasma samples from the pigs at the end of the 42 day period, all of the swine were fasted for a total of 40 hours, followed by a 48 hour refeeding period. One swine from each group was sacrificed at that time and the liver, intestine, lung, heart, loin muscle, adipose tissue and ham muscle were removed.
We next determined the effect of tocotrienols on the total cholesterol, triglyceride and glucose concentrations in various tissues of hypercholesterolemic swine.

HMG-CoA reductase = biological target: T1, HMG-CoA reductase (Homo sapiens, UniProt P04035); assay: Hepatic HMG-CoA reductase activity in chickens fed supplemented diets; format: in vivo, chicken; conditions: control diet + 50 ppm, 4 weeks
T1 construct: hepatocytes isolated from livers of 8-week old female chickens; endogenous in cells; host or cells: primary chicken hepatocytes
T1 sequence (P04035 1-888): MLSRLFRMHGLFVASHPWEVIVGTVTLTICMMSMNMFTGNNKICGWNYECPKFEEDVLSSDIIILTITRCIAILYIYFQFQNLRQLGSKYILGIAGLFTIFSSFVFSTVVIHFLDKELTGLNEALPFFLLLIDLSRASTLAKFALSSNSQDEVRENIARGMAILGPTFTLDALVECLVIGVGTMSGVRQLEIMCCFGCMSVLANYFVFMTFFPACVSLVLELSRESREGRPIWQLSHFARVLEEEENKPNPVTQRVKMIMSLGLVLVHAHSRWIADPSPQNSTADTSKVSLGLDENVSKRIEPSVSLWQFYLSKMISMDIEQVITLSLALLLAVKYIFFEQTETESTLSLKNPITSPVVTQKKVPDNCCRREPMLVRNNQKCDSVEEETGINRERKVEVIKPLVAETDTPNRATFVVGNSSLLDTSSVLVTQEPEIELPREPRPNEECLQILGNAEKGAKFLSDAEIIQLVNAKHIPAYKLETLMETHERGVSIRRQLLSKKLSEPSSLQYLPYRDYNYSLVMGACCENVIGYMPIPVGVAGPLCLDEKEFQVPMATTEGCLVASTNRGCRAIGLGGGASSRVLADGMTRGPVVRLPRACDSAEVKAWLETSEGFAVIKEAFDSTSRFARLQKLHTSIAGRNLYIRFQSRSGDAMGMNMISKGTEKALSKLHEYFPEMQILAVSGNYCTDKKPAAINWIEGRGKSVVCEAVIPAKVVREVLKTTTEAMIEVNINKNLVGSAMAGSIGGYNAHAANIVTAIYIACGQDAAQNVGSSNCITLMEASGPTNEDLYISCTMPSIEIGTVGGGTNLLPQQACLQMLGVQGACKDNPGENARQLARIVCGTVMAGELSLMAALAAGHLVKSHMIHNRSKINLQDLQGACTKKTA
Description: This example measured the effects of the TRF and its components on the hepatic enzymatic activity of HMG-CoA reductase and cholesterol 7α-hydroxylase. […] The amount of feed consumed ranged from 11.19-11.60 g per chicken and the feeding period was 4 weeks. The birds were fasted for a period of 36 hours and refed for 48 hours prior to sacrifice (at 0800 hours).

CC(C)=CCC/C(C)=C/CC/C(C)=C/CCC1(C)CCc2cc(O)ccc2O1 (stereo not shown) [P21, 3,4-dihydro-2-methyl-2-(4,8,12-trimethyltrideca-3' (E),7'(E),11'-trienyl)-2H-1-benzopyran-6-ol]
TOTAL CHOLESTEROL CONCENTRATION, Adipose Tissue [1]: 89.85 mg/100 gm | TOTAL CHOLESTEROL CONCENTRATION, Ham Muscle [1]: 79.51 mg/100 gm | TOTAL CHOLESTEROL CONCENTRATION, Heart [1]: 53.63 mg/100 gm | TOTAL CHOLESTEROL CONCENTRATION, Intestine [1]: 180.59 mg/100 gm | TOTAL CHOLESTEROL CONCENTRATION, Liver [1]: 136.70 mg/100 gm | TOTAL CHOLESTEROL CONCENTRATION, Loin Muscle [1]: 100.58 mg/100 gm | TOTAL CHOLESTEROL CONCENTRATION, Lung [1]: 75.68 mg/100 gm | TOTAL CHOLESTEROL, Adipose Tissue, percentage of control [1]: 82.13% | TOTAL CHOLESTEROL, Ham Muscle, percentage of control [1]: 79.51% | TOTAL CHOLESTEROL, Heart, percentage of control [1]: 83.13% | TOTAL CHOLESTEROL, Intestine, percentage of control [1]: 83.80% | TOTAL CHOLESTEROL, Liver, percentage of control [1]: 67.81% | TOTAL CHOLESTEROL, Loin Muscle, percentage of control [1]: 84.09% | TOTAL CHOLESTEROL, Lung, percentage of control [1]: 74.39% | TOTAL GLUCOSE CONCENTRATION, Adipose Tissue [1]: 16.67 mg/100 gm | TOTAL GLUCOSE CONCENTRATION, Ham Muscle [1]: 54.01 mg/100 gm | TOTAL GLUCOSE CONCENTRATION, Heart [1]: 44.17 mg/100 gm | TOTAL GLUCOSE CONCENTRATION, Intestine [1]: 62.50 mg/100 gm | TOTAL GLUCOSE CONCENTRATION, Liver [1]: 374.22 mg/100 gm | TOTAL GLUCOSE CONCENTRATION, Loin Muscle [1]: 55.45 mg/100 gm | TOTAL GLUCOSE CONCENTRATION, Lung [1]: 61.92 mg/100 gm | TOTAL GLUCOSE, Adipose Tissue, percentage of control [1]: 90.89% | TOTAL GLUCOSE, Ham Muscle, percentage of control [1]: 100.35% | TOTAL GLUCOSE, Heart, percentage of control [1]: 89.69% | TOTAL GLUCOSE, Intestine, percentage of control [1]: 86.84% | TOTAL GLUCOSE, Liver, percentage of control [1]: 92.35% | TOTAL GLUCOSE, Loin Muscle, percentage of control [1]: 77.84% | TOTAL GLUCOSE, Lung, percentage of control [1]: 92.51% | TOTAL TRIGLYCERIDES CONCENTRATION, Adipose Tissue [1]: 282.82 mg/100 gm | TOTAL TRIGLYCERIDES CONCENTRATION, Ham Muscle [1]: 182.16 mg/100 gm | TOTAL TRIGLYCERIDES CONCENTRATION, Heart [1]: 142.38 mg/100 gm | TOTAL TRIGLYCERIDES CONCENTRATION, Intestine [1]: 347.75 mg/100 gm | TOTAL TRIGLYCERIDES CONCENTRATION, Liver [1]: 386.25 mg/100 gm | TOTAL TRIGLYCERIDES CONCENTRATION, Loin Muscle [1]: 194.75 mg/100 gm | TOTAL TRIGLYCERIDES CONCENTRATION, Lung [1]: 165.47 mg/100 gm | TOTAL TRIGLYCERIDES, Adipose Tissue, percentage of control activity [1]: 64.91% | TOTAL TRIGLYCERIDES, Ham Muscle, percentage of control activity [1]: 98.03% | TOTAL TRIGLYCERIDES, Heart, percentage of control activity [1]: 98.72% | TOTAL TRIGLYCERIDES, Intestine, percentage of control activity [1]: 97.24% | TOTAL TRIGLYCERIDES, Liver, percentage of control activity [1]: 89.96% | TOTAL TRIGLYCERIDES, Loin Muscle, percentage of control activity [1]: 88.65% | TOTAL TRIGLYCERIDES, Lung, percentage of control activity [1]: 96.22% | HMG-CoA Reductase, percentage of control (HMG-CoA reductase): 72.83%

— US6239171A, “Tocotrienols and tocotrienol-like compounds and methods for their use” (Lipogenics, Inc., priority 1998, dated 2001)
